Literature values, collected in patent US8101589B2, “Nitric oxide-releasing molecules” (Noxilizer, Inc., priority 2004, dated 2012).

Settings: literature (Traube, 1898)

methylene bisdiazeniumdiolate
NO release in solution: inability to release NO
